The source of these data is PMC3701698, “Pathway-based Screening Strategy for Multitarget Inhibitors of Diverse Proteins in Metabolic Pathways” (PLoS Computational Biology, 2013).

As usually defined, the IC50 is the concentration at which inhibition is half-maximal. As a reminder, the inhibition is how much of the control response was suppressed.

The target of assay [1] is T1, shikimate dehydrogenase (SDH) (Helicobacter pylori, UniProt P56119).
T1 sequence (P56119 1-263): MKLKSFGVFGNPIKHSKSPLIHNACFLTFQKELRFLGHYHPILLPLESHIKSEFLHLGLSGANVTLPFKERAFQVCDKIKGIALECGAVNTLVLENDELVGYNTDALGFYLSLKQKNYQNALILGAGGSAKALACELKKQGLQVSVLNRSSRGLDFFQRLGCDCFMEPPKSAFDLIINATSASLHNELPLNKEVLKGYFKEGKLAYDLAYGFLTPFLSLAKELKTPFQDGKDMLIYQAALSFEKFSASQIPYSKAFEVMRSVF
The experiment in a line: Single enzyme inhibition assay, SDH activity (formation of NADPH, A340). The assay is classed as biochemical. The note with it: for IC50: 1.6 mM shikimate, 2 mM NADP, 25°C, pH 8.0. As to the method: (§1) The SK activity was measured by coupling the release of ADP from the SK-catalyzed reaction to the oxidation of NADH using pyruvate kinase (EC 2.7.1.40) and lactate dehydrogenase (EC 1.1.1.27) as coupling enzymes. SDH activity was determined by monitoring the formation of NADPH. The initial rate of the reaction was measured by the increase in absorbance at A340 (ε = 6,200 M^−1 cm^−1) in the present of shikimate. The assay was performed at 25°C in a mixture of 100 mM Tris-HCl buffer, pH 8.0.
(§2) Both SK and SDH were used in a final enzyme concentration of 100 nM. For determination of IC50 for each inhibitor, the assay was initiated by the addition of shikimate (1.6 mM) after incubation in a buffer containing cofactor (2 mM ATP for SK or 2 mM NADP for SDH), enzyme, and inhibitor (dissolved in 5% dimethyl sulfoxide). All assays were conducted in a 96-well microplate and analyzed with a spectrophotometer (FLUOstar OPTIMA, BMG LABTECH). A dose-response curve was fitted using the non-linear regression function of GraphPad Prism®.

In assay [2] the target is shikimate kinase (SK) (Helicobacter pylori, UniProt P56073). The experiment in a line: Single enzyme inhibition assay, SK activity (ADP release coupled to NADH oxidation). The assay is classed as biochemical. Conditions: for IC50: 1.6 mM shikimate, 2 mM ATP, 25°C, pH 8.0; for inhibition at 100 µM: Table S4, read-out: SK IC50 (μM), dash = inhibition percentage. As to the method:
as §1, §2

Assay [3] concerns the target T2, 3-dehydroquinate synthase (Helicobacter pylori, UniProt P56081).
T2 sequence (P56081 1-343): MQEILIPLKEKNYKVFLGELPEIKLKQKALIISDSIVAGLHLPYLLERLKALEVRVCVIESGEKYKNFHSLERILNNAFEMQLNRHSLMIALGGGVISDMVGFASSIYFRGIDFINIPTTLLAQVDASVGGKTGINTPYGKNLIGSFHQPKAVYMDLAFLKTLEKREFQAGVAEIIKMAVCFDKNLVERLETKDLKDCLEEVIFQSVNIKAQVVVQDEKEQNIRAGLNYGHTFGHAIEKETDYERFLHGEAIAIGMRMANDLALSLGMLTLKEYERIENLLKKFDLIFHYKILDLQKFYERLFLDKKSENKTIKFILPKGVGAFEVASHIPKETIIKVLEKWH
The experiment in a line: 3-dehydroquinate synthase inhibition assay (NADH quantification). The format is biochemical. Conditions: for inhibition of 3-dehydroquinate synthase: 1 mM DAHP, 0.5 mM NAD+. As to the method:
(§3) We performed ADP assay providing a direct method to analyze SDH-SK dual enzyme activity. The assay was initiated by addition of the 3-dehydroshikimate (2 mM) after incubating in a reaction mixture containing 2.5 mM ATP, 0.5 mM NADPH, 100 nM SDH, 100 nM SK enzyme, 50 mM KCl, 5 mM MgCl2 and different inhibitors. The reaction was carried out at 25°C in a mixture of 100 mM Tris-HCl buffer, pH 7.5 and terminated at 100°C for 5 mins in the reaction time of initial rate. The amount of ADP was measured by using ADP Colorimetric Assay Kit II (BioVision) according to the manufacturer's instruction. We also performed 3-dehydroquinate synthase inhibition assay. The reaction was comprised of 3-deoxy-D-arabinoheptulosonate 7-phosphate (1 mM) and NAD+ (0.5 mM). The amount of NADH was measured by using NAD+/NADH Quantification Kit (BioVision). All assays were conducted in a 96-well microplate and analyzed with a spectrophotometer (FLUOstar OPTIMA, BMG LABTECH). The dose-response curve was fitted using the non-linear regression function of GraphPad Prism. The IC90 values were computed from the IC50 and Hill slop.

The subject of assay [4] is dual enzyme (SDH and SK). The experiment in a line: SDH-SK dual enzyme activity ADP assay. The format is biochemical, Helicobacter pylori. Conditions: for dual enzyme dose-response curve compared with SDH and SK curves: 2 mM 3-dehydroshikimate, 100 nM SDH, 100 nM SK; for dual enzyme (SDH and SK) activity curve: at inhibitor concentrations greater than the IC90 value. Here is the method:
as §3

[5] abbreviates: 100 nM enzyme, read-out: SDH IC50.
Where [6] appears, read: 100 nM enzyme, read-out: SK IC50.

Where two headings read alike, the source gives them in different places.

shikimate kinase (SK), sequence (P56073 whole entry): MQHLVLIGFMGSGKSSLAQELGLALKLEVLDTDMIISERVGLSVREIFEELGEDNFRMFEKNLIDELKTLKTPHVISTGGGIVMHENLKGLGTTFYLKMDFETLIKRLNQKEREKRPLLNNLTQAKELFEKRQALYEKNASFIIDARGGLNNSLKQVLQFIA

As for `Cc1ccc(S(=O)(=O)CCSc2n[nH]c(=O)n2-c2ccc(OCc3ccccc3)cc2)cc1` [HTS02873], the figures for the IC50 in assay [1] (setting [5]) and in assay [2] (setting [6]) were 4.9 µM and over 100 µM, respectively. For the same molecule, the “inhibitory effect for SK” value in assay [2] (at 100 µM) was “no inhibitory effect”. Also, in assay [2], the inhibition at 100 µM was under 50%.

As for `O=C(Nc1ccc2c(O)cc(S(=O)(=O)O)cc2c1)Nc1ccc2c(O)cc(S(=O)(=O)O)cc2c1` [NSC45174], the IC50 was 3.6 µM in assay [1] (SDH IC50, 100 nM enzyme); under 10 µM in assay [2] (SK IC50, 100 nM enzyme); 7.1 µM in assay [3]. Moreover, the “dual enzyme dose-response curve compared with SDH and SK curves” value in assay [4] is listed as “median effect”. Also, the “dual enzyme (SDH and SK) activity curve” value in assay [4] is “approximately 0”.

For `Cc1cc(/N=N/c2ccc(/N=N/c3ccc(/N=N/c4ccc(O)c(C(=O)O)c4)cc3)c(S(=O)(=O)O)c2C)c(N)cc1N` [NSC45611], the IC50 in assay [1] (setting [5]) was 1.4 µM; in assay [2] (setting [6]) it was 4.8 µM. For the same molecule, the “inhibition of 3-dehydroquinate synthase” value in assay [3] is “no inhibitions”. In assay [4], the “dual enzyme dose-response curve compared with SDH and SK curves” value is on record as “median effect”. Moreover, in assay [4], the “dual enzyme (SDH and SK) activity curve” value is reported as “approximately 0”.

For the molecule `O=C(Nc1ccc2ncccc2c1)Nc1ccc2ncccc2c1` [NSC71881], the inhibition at 100 µM in assay [1] (at 100 μM, Table S4, read-out: SDH IC50 (μM), dash = inhibition percentage) is under 50%; in assay [2], under 50%.

`Nc1ccc2c(O)c(N=Nc3ccc4c(O)cc(S(=O)(=O)O)cc4c3)c(S(=O)(=O)O)cc2c1` [NSC162535, reference compound]: the “dual enzyme dose-response curve compared with SDH and SK curves” value in assay [4] is listed as “nearly identical profiles”.

Consider `O=C(NNC(=O)C1c2ccccc2Oc2ccccc21)c1cccc([N+](=O)[O-])c1` [RH00037], for which the IC50 in assay [1] (setting [5]) came to 24.8 µM. Further, the “inhibition of 3-dehydroquinate synthase” value in assay [3] was “no inhibitions”.
